Source: the supplement of paper PMC10307832

Key:
Assay in all cases: relative viability (nuclei count vs DMSO), 5 days (fraction); higher = more cells survive
[1] = compound: CCN(CCO)CCCC(C)Nc1ccnc2cc(Cl)ccc12 [Hydroxychloroquine] + CC(C)C[C@H](NC(=O)[C@H](Cc1ccccc1)NC(=O)c1cnccn1)B(O)O [Bortezomib] (partner 0.002 µM)
Outline: (§1)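 A single step with final 0.05% Triton X-100, 1% formaldehyde and 1 ug/ml Hoechst fixed the cells and stained nuclei 5 days after treatment. Lung cancer cell lines in 1536-well plates had been treated by pin tool the day after seeding with one drug alone or a fixed anchor-drug dose plus five library-drug doses (not always all listed) in √10 steps, and nuclei were counted on 4× images. Relative viability is the ratio of nuclei in treated wells to nuclei in vehicle wells, taken as the median of duplicate plates.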

[2] = compound: CCN(CCO)CCCC(C)Nc1ccnc2cc(Cl)ccc12 [Hydroxychloroquine] + CS(=O)(=O)N1CCN(Cc2cc3nc(-c4cccc5[nH]ncc45)nc(N4CCOCC4)c3s2)CC1 [Pictilisib] (partner 1 µM)
Outline: as §1

[3] = compound: CCN(CCO)CCCC(C)Nc1ccnc2cc(Cl)ccc12 [Hydroxychloroquine] + O=C(c1cc(Cc2n[nH]c(=O)c3ccccc23)ccc1F)N1CCN(C(=O)C2CC2)CC1 [Olaparib] (partner 8 µM)
Outline: as §1

[4] = compound: CCN(CCO)CCCC(C)Nc1ccnc2cc(Cl)ccc12 [Hydroxychloroquine] + CC(=O)Nc1cccc(-n2c(=O)n(C3CC3)c(=O)c3c(Nc4ccc(I)cc4F)n(C)c(=O)c(C)c32)c1 [Trametinib] (partner 0.02 µM)
Outline: as §1

Cell Line | relative viability ([1]; first compound 0.5 µM) | relative viability ([1]; first compound 1.581 µM) | relative viability ([1]; first compound 5 µM) | relative viability ([1]; first compound 15.81 µM) | relative viability ([1]; first compound 50 µM) | relative viability ([2]; first compound 0.5 µM) | relative viability ([2]; first compound 1.581 µM) | relative viability ([2]; first compound 5 µM) | relative viability ([2]; first compound 15.81 µM) | relative viability ([2]; first compound 50 µM) | relative viability ([3]; first compound 0.5 µM) | relative viability ([3]; first compound 1.581 µM) | relative viability ([3]; first compound 5 µM) | relative viability ([3]; first compound 15.81 µM) | relative viability ([3]; first compound 50 µM) | relative viability ([4]; first compound 0.5 µM) | relative viability ([4]; first compound 1.581 µM) | relative viability ([4]; first compound 5 µM) | relative viability ([4]; first compound 15.81 µM) | relative viability ([4]; first compound 50 µM)
HCC-78 | 0.425 | 0.482 | 0.525 | 0.519 | 0.568 | 0.21 | 0.176 | 0.221 | 0.224 | 0.165 | 0.899 | 0.841 | 0.794 | 0.864 | 0.923 | 0.823 | 0.834 | 0.878 | 0.752 | 0.904
HCC-366 | 1.1 | 1.15 | 1.04 | 1.06 | 1.16 | 0.202 | 0.13 | 0.198 | 0.18 | 0.148 | 0.312 | 0.362 | 0.354 | 0.342 | 0.375 | 0.334 | 0.323 | 0.355 | 0.282 | 0.458
HCC-827 | 1.03 | 1.04 | 1.07 | 1.16 | 1.01 | 1.01 | 0.899 | 0.755 | 0.98 | 1.06 | 0.645 | 0.618 | 0.591 | 0.54 | 0.561 | 0.506 | 0.479 | 0.488 | 0.563 | 0.531
HOP-62 | 0.652 | 0.9 | 0.751 | 0.945 | 1.02 | 0.682 | 0.643 | 0.722 | 0.854 | 0.515 | 0.368 | 0.232 | 0.443 | 0.496 | 0.394 | 0.37 | 0.387 | 0.386 | 0.397 | 0.341
IA-LM | 0.695 | 0.83 | 0.909 | 0.758 | 1 | 0.296 | 0.357 | 0.361 | 0.433 | 0.338 | 0.756 | 0.887 | 0.8 | 0.892 | 0.754 | – | – | – | – | –
LC-2-ad | 0.974 | 1.03 | 1.04 | 1.01 | 1.12 | 0.321 | 0.395 | 0.463 | 0.546 | 0.436 | 0.673 | 0.664 | 0.738 | 0.725 | 0.772 | 0.925 | 0.98 | 0.941 | 0.865 | 0.924
LCLC-97TM1 | 0.453 | 0.764 | 0.483 | 0.523 | 0.529 | 0.265 | 0.183 | 0.277 | 0.182 | 0.131 | 0.529 | 0.371 | 0.324 | 0.453 | 0.29 | 0.208 | 0.185 | 0.196 | 0.23 | 0.16
LK-2 | – | – | – | – | – | 0.607 | – | 0.58 | 0.62 | 0.558 | 0.734 | 0.719 | 0.659 | 0.648 | 0.874 | 0.864 | 0.599 | 0.707 | 0.876 | 1.01
NCI-H358 | – | – | – | – | – | 0.32 | 0.274 | 0.281 | 0.327 | 0.328 | 0.675 | 0.585 | 0.522 | 0.973 | 0.571 | 0.128 | 0.122 | 0.132 | 0.131 | 0.127
NCI-H522 | – | – | – | – | – | – | – | – | – | – | 0.578 | – | 0.68 | 0.642 | 0.608 | 0.674 | – | 0.915 | 0.65 | 0.805
NCI-H1299 | 1.01 | 1.01 | 1.04 | 1.03 | 0.942 | 0.805 | 0.682 | 0.867 | 0.845 | 0.746 | 0.997 | 0.974 | 0.947 | 1.01 | 0.917 | – | – | – | – | –
NCI-H1395 | – | – | – | – | – | 0.605 | 0.836 | 0.627 | 0.564 | 0.569 | 0.46 | 0.467 | 0.471 | 0.512 | 0.423 | 1.09 | 0.972 | 0.862 | 1.02 | 0.949
NCI-H1563 | 0.891 | 0.784 | 0.923 | 0.779 | 0.759 | 0.694 | 0.605 | 0.574 | 0.627 | 0.596 | – | – | – | – | – | – | – | – | – | –
NCI-H1648 | – | – | – | – | – | – | – | – | – | – | 0.766 | 0.965 | 1.01 | 1.06 | 0.926 | 0.499 | 0.434 | 0.437 | 0.57 | 0.414
NCI-H1703 | 0.322 | 0.273 | 0.284 | 0.291 | 0.316 | 0.272 | 0.241 | 0.224 | 0.263 | 0.216 | 0.424 | 0.431 | 0.556 | 0.467 | 0.446 | – | – | – | – | –
NCI-H1793 | – | – | – | – | – | 0.349 | 0.308 | 0.415 | 0.307 | 0.364 | 0.866 | 0.814 | 0.878 | 0.906 | 0.728 | 0.405 | 0.463 | 0.475 | 0.416 | 0.344
NCI-H1944 | – | – | – | – | – | 0.309 | 0.293 | 0.326 | 0.325 | 0.382 | 0.417 | 0.445 | 0.416 | 0.414 | 0.402 | 0.398 | 0.354 | 0.39 | 0.403 | 0.41
NCI-H2170 | – | – | – | – | – | 0.327 | 0.294 | 0.282 | 0.284 | 0.333 | 0.647 | 0.568 | 0.679 | 0.528 | 0.734 | 0.867 | 0.852 | 0.933 | 1.05 | 0.896
NCI-H2342 | – | – | – | – | – | – | – | – | – | – | 0.434 | 0.386 | 0.42 | 0.421 | 0.509 | 0.868 | 0.923 | 0.908 | 0.804 | 0.881
SK-MES-1 | – | – | – | – | – | 0.4 | 0.373 | 0.321 | 0.342 | 0.359 | 0.812 | 0.683 | 0.724 | 0.738 | 0.671 | 0.558 | 0.52 | 0.538 | 0.559 | 0.553
SW 900 | – | – | – | – | – | – | – | – | – | – | 0.894 | 0.852 | 0.88 | 0.819 | 0.75 | 0.761 | 1.01 | 0.779 | 0.879 | 0.806
